Test results from patent publication US7745422B2, “Bisphosphonate compounds and methods for bone resorption diseases, cancer, bone pain, immune disorders, and infectious diseases” (The Board of Trustees of the University of Illinois, priority 2004, dated 2010).
Where two headings read alike, the source gives them in different places.

Columns and labels:
Dictyostelium discoideum = experiment: D. discoideum cell growth inhibition; type: cell-based
Description: (§1) We then investigated the activity of each compound in inhibiting the FPPS from L. major, in Dictyostelium discoideum growth inhibition and in γδ T cell activation. We used the FPPS from L. major since this enzyme is the putative bisphosphonate target in several trypanosomatid species.

Vγ2Vδ2 T cells = experiment: gammadelta T cell stimulation (TNF-α release assay); type: cell-based, human
Description: as §1

[1] = Table 4, read-out: (1) D. discoideum IC50
[2] = Table 4, read-out: (3) gammadelta T cell stimulation EC50
[3] = cell growth inhibition, Table 1 and text, read-out: D. discoideum IC50
[4] = TNF-α release, Table 1 and text, read-out: gammadelta T cell stimulation, EC50
[5] = Table 3, additional testing, read-out: gammadelta T cell stimulation EC50

Row | Compound | IC50 (Dictyostelium discoideum; [1]) [µM] | EC50 (Vγ2Vδ2 T cells; [2]) [µM] | EC50 (Vγ2Vδ2 T cells; [5]) [µM] | also measured
1 | CC([n+]1ccccc1)C(O)(P(=O)([O-])O)P(=O)(O)O (single isomer, unassigned) [Compound 583] | 14 | 50 |  | 
2 | O=P([O-])(O)C(O)(C[n+]1ccc2ccccc2c1)P(=O)(O)O (stereo not shown) [Compound 398] | 20 | 41 | 40.6 | IC50 (Dictyostelium discoideum; [3]): 20 µM; EC50 (Vγ2Vδ2 T cells; [4]): 41 µM
3 | O=P([O-])(O)C(O)(C[n+]1ccc(Cc2ccccc2)cc1)P(=O)(O)O (stereo not shown) [Compound 443] | 12 | 230 | 187 | IC50 (Dictyostelium discoideum; [3]): 12 µM; activity in gammadelta T cell stimulation (Vγ2Vδ2 T cells; TNF-α release): poor activity; EC50 (Vγ2Vδ2 T cells; [4]): 230 µM
4 | CCc1ccc[n+](CC(O)(P(=O)([O-])O)P(=O)(O)O)c1 (stereo not shown) [Compound 444] | 5.6 | 5.1 | 2.8 | IC50 (Dictyostelium discoideum; [3]): 5.6 µM; EC50 (Vγ2Vδ2 T cells; [4]): 5.1 µM
5 | O=P([O-])(O)C(O)(C[n+]1cccc2cc(Cl)ccc21)P(=O)(O)O (stereo not shown) [Compound 447] | 72 | 53 |  | IC50 (Dictyostelium discoideum; [3]): 72 µM; EC50 (Vγ2Vδ2 T cells; [4]): 53 µM
6 | O=P([O-])(O)C(O)(C[n+]1cccc(-c2ccc(C(F)(F)F)cc2)c1)P(=O)(O)O (stereo not shown) [Compound 449] | 4 | 12 |  | 
7 | Cc1ccc2c(ccc[n+]2CC(O)(P(=O)([O-])O)P(=O)(O)O)c1 (stereo not shown) [Compound 452] | 73 | 250 |  | 
8 | O=P([O-])(O)C(O)(CC[n+]1ccccc1)P(=O)(O)O (stereo not shown) [Compound 455] | 27 | 25 |  | 
9 | COc1cc[n+](CC(O)(P(=O)([O-])O)P(=O)(O)O)cc1 (stereo not shown) [Compound 456] | 27 | 19 |  | 
10 | Cc1ccc2ccc[n+](CC(O)(P(=O)([O-])O)P(=O)(O)O)c2c1 (stereo not shown) [Compound 457] | 14 | 1900 |  | 
11 | Cc1cc(C)c[n+](CC(O)(P(=O)([O-])O)P(=O)(O)O)c1 (stereo not shown) [Compound 459] | 27 | 14 |  | 
12 | Cc1cc[n+](CC(O)(P(=O)([O-])O)P(=O)(O)O)cc1C (stereo not shown) [Compound 460] | 14 | 13 |  | 
13 | O=P([O-])(O)C(O)(C[n+]1cccc(-c2ccc(F)cc2)c1)P(=O)(O)O (stereo not shown) [Compound 462] | 2.7 | 15 |  | 
14 | O=P([O-])(O)C(C[n+]1ccccc1)P(=O)(O)O (stereo not shown) [Compound 470] | 3.5 |  | 3.3 | 
15 | O=P([O-])(O)C(O)(C[n+]1ccc(-c2ccncc2)cc1)P(=O)(O)O (stereo not shown) [Compound 471] |  |  |  | (1) D. discoideum IC50 (Dictyostelium discoideum; Table 4): inactive; (3) gammadelta T cell stimulation EC50 (Vγ2Vδ2 T cells; Table 4): inactive
16 | O=P([O-])(O)C(C[n+]1cccc(-c2ccccc2)c1)P(=O)(O)O (stereo not shown) [Compound 472] | 2.5 |  | 2.1 | 
17 | O=P([O-])(O)C(C[n+]1ccc2ccccc2c1)P(=O)(O)O (stereo not shown) [Compound 473] | 20 |  | 20.1 | 
18 | Cc1ccc[n+](CC(P(=O)([O-])O)P(=O)(O)O)c1 (stereo not shown) [Compound 474] | 4.4 |  | 2.4 | 
19 | CCc1ccc[n+](CC(P(=O)([O-])O)P(=O)(O)O)c1 (stereo not shown) [Compound 475] | 4.1 |  | 2.8 | 
20 | CCCCc1ccc[n+](CC(P(=O)([O-])O)P(=O)(O)O)c1 (stereo not shown) [Compound 476] | 2.3 |  | 2 | 
21 | O=P([O-])(O)C(O)(C[n+]1ccc(-c2ccccc2)cc1)P(=O)(O)O (stereo not shown) [Compound 478] | 760 |  |  | (3) gammadelta T cell stimulation EC50 (Vγ2Vδ2 T cells; Table 4): inactive
22 | COc1ccc[n+](CC(O)(P(=O)([O-])O)P(=O)(O)O)c1 (stereo not shown) [Compound 479] |  | 15 |  | 
23 | O=P([O-])(O)C(C[n+]1cccc(Cc2ccccc2)c1)P(=O)(O)O (stereo not shown) [Compound 480] | 3 |  | 68.7 | 
24 | O=P([O-])(O)C(C[n+]1cccc(-c2ccc(F)c(F)c2)c1)P(=O)(O)O (stereo not shown) [Compound 533] |  | 19 |  | 
25 | O=P([O-])(O)C(O)(C[n+]1cc(F)cc(-c2ccccc2)c1)P(=O)(O)O (stereo not shown) [Compound 534] |  | 16 |  | 
26 | CC(C)CCc1ccc[n+](CC(P(=O)([O-])O)P(=O)(O)O)c1 (stereo not shown) [Compound 603] |  | 22 |  | 
27 | CCCCCCCCc1ccc[n+](CC(P(=O)([O-])O)P(=O)(O)O)c1 (stereo not shown) [Compound 605] |  | 6 |  | 
